Laboratory results reported in article PMC12423301, “Astrocytic monoamine oxidase B (MAOB)–gamma-aminobutyric acid (GABA) axis as a molecular brake on repair following spinal cord injury” (Signal Transduction and Targeted Therapy, 2025).

Experiments:
[1] = parameters: method as in PMID 30906861; conditions: cited from earlier work
[2] = GLP toxicity tests in monkeys
[3] = 14C radiolabeled KDS2010 disposition and excretion in rats; assay type: in vivo, SD rats
Experimental: (§1) Protocol No. NB_KDS_ADP1_21 Confidential
In a pharmacokinetic study, plasma PK parameters were measured after a single oral administration of
5.2. Rationale for Selection of Dose and Duration of Dosing
According to the FDA guideline (Estimating the Maximum Safe Starting Dose in Initial Clinical Trials for […]

monkey SCI model = assay: Monkey SCI model: tissue sections and immunohistochemistry; assay type: in vivo, cynomolgus macaques (Macaca fascicularis)
Experimental: For the nonhuman primate SCI model, female cynomolgus macaques were anesthetized with Zoletil 50 (8–10 mg/kg; Virbac Korea) and isotropy 100. Laminectomy was performed at thoracic level 8 under X-ray guidance, and the SCI model was established using a vessel clip (Micro Serrefine Clamp, 1805501, Fine Science Tools; 60 g pressure, 19 mm) applied for 10 min. After surgery, the monkeys were monitored until full recovery, with precautions taken to prevent hypothermia and dehydration. For pressure ulcers, antibacterial drugs were administered, and sugar therapy was applied as needed.
To determine the appropriate dosing for macaques, interspecies dose translation was performed according to the U.S. FDA’s Guidance for Industry (2005), using body surface area (BSA)-based conversion with species-specific Km values.
On the basis of this calculation, two doses were selected: 3 mg/kg/day (~60% of the HED) for evaluating the minimal effective dose, and 10 mg/kg/day (approximately 2× HED) for assessing upper tolerability and therapeutic margin.
Immunohistochemistry was performed as previously described.[70] The tissue sections were blocked and treated with primary antibodies. After overnight incubation at 4 °C, species-specific fluorescent secondary antibodies were applied for visualization. The tissue sections were then stained with 4’,6-diamidino-2-phenylindole (DAPI) during mounting. This protocol allows a detailed assessment of various cellular markers involved in SCI and recovery processes.

rat SCI model [4] = assay: Western blot and GABA ELISA of rat spinal cord tissue; assay type: in vivo; conditions: PI 10w
Experimental: Approximately 24 h after drug treatment, primary mouse spinal cord astrocytes or spinal cord tissues were lysed in RIPA buffer (MB030-0050, ROCKLAND) containing protease and phosphatase inhibitors (1861280, Thermo Fisher Scientific). The protein concentration was measured using the Pierce™ BCA Protein Assay Kit (Thermo Fisher Scientific). Each sample was then used separately for Western blot or GABA ELISA analysis. Western blot analysis was performed following established protocols,[73],[74] with 20 μg of spinal cord tissue or 10 μg of astrocyte protein samples were loaded onto SDS-PAGE gels, transferred to PVDF membranes, and blocked with 5% non-fat milk. The membranes were incubated overnight at 4 °C with primary antibodies, including rabbit anti-MAOB (1:1000, Abcam), rabbit anti-BDNF (1:1000, Abcam), mouse anti-TrkB (1:1000, R&D Systems), and rabbit anti-β-actin (1:1000, Cell Signaling Technology). […] The bands were visualized using enhanced chemiluminescence, and band intensity was quantified using ImageJ software. For enzyme-linked immunosorbent assay (ELISA), GABA quantification was performed using an ELISA kit (BA-E-2500, ImmuSmol) according to the manufacturer’s instructions, utilizing 20 μg of protein extracted from spinal cord tissues.

[5] = human
Experimental: as §1
Therapeutics in Adult Healthy Volunteers), with considering the safety factor and the result of the rat that […]
from the NOAEL calculated in the 4-week repeated toxicity test for rats and cynomolgus monkeys, the maximum recommended starting dose (MRSD) was calculated. As a result of converting 0.484 mg/kg, a value obtained by dividing this by the safety factor of 10, into a dose for a healthy adult weighing 60 kg, the MRSD was calculated to be 29.04 mg, and the initial administration dose was set to 30 mg. As a result of a single oral dose toxicity test in rats, 700 mg/kg was reported as a maximum tolerated dose (MTD), and it was calculated as 6774.2 mg/60kg when converted to a human equivalent dose (HED). Therefore, the set maximum dose is expected to be suitable in terms of safety.
Species NOAEL HED factor (Safety factor factor (Safety factor 1/30) […]
5.2.2. Duration of Dosing and Timepoints of Blood samplings/Urine collections
6 hours. In addition, considering that the Tmax of selegiline (ZELAPAR®) and safinamide (XADAGO®), which are similar drugs, are 0.75 hours and 1.83 to 2.83 hours, respectively, pharmacokinetic blood samplings before the estimated Tmax (about 2 hours) were included at 3 or more time points, and the pharmacokinetic blood […]

rat SCI model [6] = assay: TEM and TB staining of rat spinal cord (myelination); assay type: in vivo, Sprague-Dawley (SD) rats
Experimental: Spinal cord tissues were prefixed in Karnovsky’s fixative (2% glutaraldehyde, 2% paraformaldehyde in 0.1 M phosphate buffer) overnight at 4 °C. After postfixation in 1% osmium tetroxide (OsO4), the samples were dehydrated through a graded ethanol series and embedded in epoxy resin.
For TB staining, 250–300 nm semi-thin sections were obtained via an ultramicrotome (Leica Ultracut UCT, Leica Microsystems, Austria), stained with 0.5% toluidine blue, and imaged using a light microscope (Olympus IX71).
For TEM, 80–100 nm ultrathin sections were cut using a diamond knife (Diatome, Switzerland), mounted on 300-mesh Gilder grids, and stained with 6% uranyl acetate and lead citrate. Images were acquired using a transmission electron microscope (JEM 1011, JEOL, Tokyo, Japan) as previously described.
All TB and TEM analyses were performed on spinal cord tissues collected at the lesion epicenter, where myelination is most affected by injury.

[7] = BDC rats, until 48 hours after oral administration
[8] = up to 168 hours after administration

SMILES: CS(=O)(=O)O.C[C@H](NCc1ccc(-c2ccc(C(F)(F)F)cc2)cc1)C(N)=O [KDS2010, (S)-2-(((4’-Trifluoromethylbiphenyl-4-yl)methyl)amino)propanamide methane-sulfonate]
- permeability across the blood‒brain barrier [1]: highly permeable
- adverse effects ([2]; oral 0, 10, 20, and 40 mg/kg for 4 weeks, 2 weeks recovery): no adverse effects related to the test substance
- mortality ([2]; oral 2 weeks, 100 mg/kg/day male and female, 50 mg/kg/day male): a dying condition or mortality was observed
- administered radioactivity present in the body (carcass) ([3]; 14C radiolabeled, oral 10 mg/kg): 44.1%
- excreted in bile ([3]; BDC (bile duct-cannulated) rats, until 48 hours after oral administration): 71.5%
- excreted in feces [3, 7]: 6.0%
- excreted in urine [3, 7]: 6.8%
- excretion to air through respiration ([3]; until 48 hours after administration): about 0.0%
- excreted in feces [3, 8]: 48.5%
- excreted in urine [3, 8]: 6.9%
- hematoma and cavity formation at the injury site (monkey SCI model; 3 or 10 mpk from the acute phase, PI 5w): significantly reduced
- MAP2 intensity vs SCI + V (monkey SCI model; SCI + KDS 3 mpk, PI 5w): tended to increase
- MAP2 intensity vs SCI + V (monkey SCI model; SCI + KDS 10 mpk, PI 5w): significantly greater
- astrocytic MAOB (monkey SCI model; both KDS treatment groups (3 and 10 mpk), PI 5w): significantly reduced
- pharmacologically active dose (PAD) (monkey SCI model; cynomolgus macaques, for 5 weeks): 3 mpk
- GABA levels (ELISA) (rat SCI model [4]; SCI + KDS 1 d/Re): significant reduction
- MAOB protein level (Western blotting) (rat SCI model [4]; SCI+KDS 1d/Re vs SCI+V): significantly reduced
- half-life [5]: ~2160 min
- myelination (TEM) (rat SCI model [6]; SCI + KDS 2w at PI 10w): fully recovered
- number of myelinated axons (rat SCI model [6]; SCI + KDS 2w, PI 2-10w): gradual increase
- density of cavities (rat SCI model [6]; SCI + KDS 2w, TB staining, PI 2-10w): gradual decrease
